For the data set the following is noted: 101.33 kPa, Liquid, Vibrating tube method.

Molecules are shown by their SMILES. ± gives the expanded uncertainty stated by the source.

As for `CCCC[N+]1(C)CCCC1.N#CC(=C=[N-])C#N` [1-butyl-1-methylpyrrolidinium tricyanomethanide], the mass density (commonly the mass of a sample divided by its volume) is, setting by setting: (293.15 K) 1008.9 ± 2.2 kg/m3; (303.15 K) 1003 ± 2.1 kg/m3; (313.15 K) 997.3 ± 2.1 kg/m3; (323.15 K) 991.4 ± 2.1 kg/m3.
`CCCC[n+]1ccc(C)cc1.N#CC(=C=[N-])C#N` [1-butyl-4-methylpyridinium tricyanomethanide]: the mass density is recorded as 1038.3 ± 2.2 kg/m3 (293.15 K), 1032.1 ± 2.2 kg/m3 (303.15 K), 1025.7 ± 2.2 kg/m3 (313.15 K) and 1019.7 ± 2.2 kg/m3 (323.15 K).

The values are drawn from the NIST ThermoML archive (doi:10.1016/j.fluid.2018.04.020).
